Test results published in the NIST ThermoML archive (doi:10.1016/j.tca.2014.10.002).
“And” between values parts separate entries of the source, which are not always exact repeats. Equal entries are not always repeated.

Key:
[1] = molar heat capacity at constant pressure; details: 101.33 kPa, Large sample (1 g) DSC
[2] = Crystal; DTA
[3] = Molar enthalpy of transition or fusion; details: Crystal; DSC

OC1CCC1 [cyclobutanol]
[1], Liquid
Details	molar heat capacity at constant pressure
258.09 K	132.4 J/K/mol and 132.7 J/K/mol
263.2 K	134.8 J/K/mol and 134.7 J/K/mol
268.3 K	137 J/K/mol and 137.2 J/K/mol
273.41 K	139.4 J/K/mol
278.51 K	141.8 J/K/mol
283.62 K	144.6 J/K/mol and 144.4 J/K/mol
288.72 K	147.4 J/K/mol and 147.3 J/K/mol
293.83 K	150.5 J/K/mol and 150.2 J/K/mol
298.93 K	153.7 J/K/mol and 153.8 J/K/mol
304.04 K	157 J/K/mol and 157.1 J/K/mol
309.14 K	160.5 J/K/mol
314.25 K	164.1 J/K/mol and 164 J/K/mol
319.35 K	168 J/K/mol and 167.9 J/K/mol
324.46 K	171.9 J/K/mol and 171.6 J/K/mol
329.57 K	175.4 J/K/mol
334.67 K	179.4 J/K/mol
339.77 K	183.6 J/K/mol and 183.1 J/K/mol
344.88 K	187.5 J/K/mol and 187 J/K/mol
349.98 K	191.6 J/K/mol
355.09 K	195.6 J/K/mol

Details	Molar enthalpy of transition or fusion [kcal/mol]	Normal melting temperature [°C]
[2]	–	-45.61
[3]	1.89	–

OC1CCCCCC1 [cycloheptanol]
[1]
Details	molar heat capacity at constant pressure
260.59 K, Crystal	195.3 J/K/mol
260.73 K, Crystal	195.4 J/K/mol
262 K, Crystal	196.4 J/K/mol and 196.5 J/K/mol
264 K, Crystal	198 J/K/mol and 198.1 J/K/mol
266 K, Crystal	199.8 J/K/mol
268 K, Crystal	201.8 J/K/mol and 201.7 J/K/mol
270 K, Crystal	204 J/K/mol
271.34 K, Crystal	205.2 J/K/mol
271.43 K, Crystal	205.4 J/K/mol
286.01 K, Liquid	236.1 J/K/mol
286.13 K, Liquid	236.3 J/K/mol
290 K, Liquid	240.6 J/K/mol
295 K, Liquid	246.5 J/K/mol
300 K, Liquid	252.3 J/K/mol
305 K, Liquid	258.1 J/K/mol and 258.2 J/K/mol
310 K, Liquid	263.8 J/K/mol
315 K, Liquid	269.4 J/K/mol and 269.5 J/K/mol
320 K, Liquid	274.8 J/K/mol and 274.9 J/K/mol
325 K, Liquid	280.3 J/K/mol and 280.2 J/K/mol
330 K, Liquid	285.3 J/K/mol and 285.2 J/K/mol
335 K, Liquid	289.9 J/K/mol and 290 J/K/mol
340 K, Liquid	294.4 J/K/mol
345 K, Liquid	299.2 J/K/mol
350 K, Liquid	303.6 J/K/mol
354.82 K, Liquid	307.6 J/K/mol
355 K, Liquid	307.7 J/K/mol
357.82 K, Liquid	309.7 J/K/mol

OC1CCCCC1 [cyclohexanol]
[1]
Details	molar heat capacity at constant pressure
261.42 K, Crystal	162.6 J/K/mol
261.48 K, Crystal	162.8 J/K/mol
264 K, Crystal	164.5 J/K/mol and 164.7 J/K/mol
267 K, Crystal	166.8 J/K/mol and 167 J/K/mol
270 K, Crystal	169.1 J/K/mol and 169.4 J/K/mol
273 K, Crystal	171.7 J/K/mol and 172 J/K/mol
276 K, Crystal	174.5 J/K/mol and 174.9 J/K/mol
279 K, Crystal	177.4 J/K/mol and 177.9 J/K/mol
282 K, Crystal	180.8 J/K/mol and 181.4 J/K/mol
284.5 K, Crystal	184.9 J/K/mol
284.95 K, Crystal	184.8 J/K/mol
305.05 K, Liquid	218.3 J/K/mol
305.18 K, Liquid	218.6 J/K/mol
310 K, Liquid	223.8 J/K/mol and 224 J/K/mol
315 K, Liquid	229.6 J/K/mol and 229.7 J/K/mol
320 K, Liquid	235.5 J/K/mol and 235.3 J/K/mol
325 K, Liquid	241.3 J/K/mol and 241.1 J/K/mol
330 K, Liquid	246.7 J/K/mol and 246.8 J/K/mol
335 K, Liquid	252 J/K/mol and 252.2 J/K/mol
340 K, Liquid	257.4 J/K/mol and 257.6 J/K/mol
345 K, Liquid	262.8 J/K/mol and 263 J/K/mol
350 K, Liquid	268 J/K/mol
355 K, Liquid	272.3 J/K/mol and 272.5 J/K/mol
357.82 K, Liquid	274.7 J/K/mol
357.94 K, Liquid	274.7 J/K/mol

OC1CCCC1 [cyclopentanol]
[1], Liquid
Details	molar heat capacity at constant pressure
265.06 K	157.6 J/K/mol
270 K	160.7 J/K/mol
275 K	164.2 J/K/mol
280 K	167.8 J/K/mol and 167.9 J/K/mol
285 K	171.6 J/K/mol and 171.7 J/K/mol
290 K	175.7 J/K/mol and 175.9 J/K/mol
295 K	180 J/K/mol and 180.1 J/K/mol
300 K	184.3 J/K/mol and 184.4 J/K/mol
305 K	188.6 J/K/mol and 188.7 J/K/mol
310 K	193 J/K/mol and 193.1 J/K/mol
315 K	197.4 J/K/mol and 197.6 J/K/mol
320 K	201.8 J/K/mol and 202 J/K/mol
325 K	206.2 J/K/mol and 206.4 J/K/mol
330 K	210.5 J/K/mol and 210.7 J/K/mol
335 K	215 J/K/mol and 215.1 J/K/mol
340 K	219.5 J/K/mol
345 K	223.8 J/K/mol and 223.7 J/K/mol
350 K	228.1 J/K/mol and 228 J/K/mol
354.91 K	232 J/K/mol
355 K	232 J/K/mol
357.78 K	234.1 J/K/mol
